The assay deals with PD-L1. Nature of the assay: Inhibitory effect of PD-L1 expression by cell staining with anti-PD-L1 antibody in IFN-γ-treated THP-1 cells (flow cytometry). It is filed as cell-based. The conditions noted are these: Homo sapiens, IFN-γ 25 ng/mL, 24±2 hours, subMFI anti-CD274-PC7, read-out: IC50 (50% PD-L1 expression inhibition concentration). The procedure: The inhibitory effects of each compound of Examples 1 to 6 on the PD-L1 expression were evaluated according to the following procedures.
(1) Acute monocytic leukemia cell-derived THP-1 cells were suspended in RPMI medium containing 10% FCS and 1% P/S (hereinafter, referred to as “RPMI medium”) at 5×10^5 cells/mL to obtain a cell suspension, and the cell suspension was dispensed into each well of a 6 well-plate in an amount of 3 mL. In order to activate the THP-1 cells and express PD-L1 in the cells, IFN-γ (PEPROTECH, Cat. No. 300-02-100UG, >2e+7 U/mg) was added into each well at a concentration of 25 ng/mL (>500 U/mL). 50 mmol/L of the test compound solution was diluted with the medium (usually, in the range of 0.025 mmol/L to 1 mmol/L), and the diluted solution was added into each well in an amount of 60 μL. The plate was incubated in a CO2 incubator (at 37° C. and 5% CO2) for 24±2 hours. In the control group, only DMSO was added in place of the test compound. (2) A part of the prepared cell culture liquid was collected and the number of cells therein was counted using a cell counter (BIORAD TC-20). The cell culture liquid was centrifuged at 300×g for 5 minutes and the supernatant of the cell culture liquid was removed. The cells were suspended in calcium and magnesium free phosphate buffered saline (PBS−) containing 1% bovine serum albumin (BSA) at a cell concentration of 1 to 2×10^7 cells/mL to prepare a cell suspension. (3) Each cell suspension prepared in the above step (2) were added into a 5 mL tube in an amount of 25 μL. 2 μL of 2% normal mouse serum/PBS− was added into tubes, and the tubes were gently pipetted. The tubes were then allowed to stand at room temperature for 15 minutes. (4) Anti-CD274-PC7 antibody (BECKMAN COULTER, Cat. No. A78884) or mouse IgG1-PC7 antibody (BECKMAN COULTER, 737662) as control was added in each tube in an amount of 10 μL, and the tubes were gently stirred. The tubes were then allowed to stand in the dark on an ice bath for 30 minutes. (5) Foxp3/Transcription Factor Fix/Perm Concentrate (4×) (Cat. No. TNB-1020-L050) (A solution) supplied in FOXP3/Transcription Factor Staining kit (TONBO biosciences) was diluted in Foxp3/Transcription Factor Fix/Perm Diluent (1×) (Cat. No. TNB-1022-L160) (A dilution solution) to prepare a 1×A solution. (6) The 1×A solution was added into each tube in an amount of 1 mL, and the tubes were gently pipetted and stirred. The tubes were then allowed to stand in the dark at room temperature for 30 minutes and centrifuged at 300×g for 5 minutes, and then the supernatants therein were removed. (7) 2 mL of 1% BSA/PBS− was added into each tube and the tubes were gently stirred and centrifuged at 300×g for 5 minutes, and then the supernatants therein were removed. (8) The cells therein were suspended in 0.5 mL of 1% BSA/PBS- and measured with a flow cytometer (Sony: Cell Sorter SH800) within 2 hours. The results were analyzed with a software, FlowJo (Tree Star Inc.). The mean peak fluorescence intensity (MFI) of PD-L1 and mean peak fluorescence intensity of IgG1 were calculated from histograms of the measured fluorescence intensity and number of cells, and the mean fluorescence intensity of IgG1 was subtracted from that of PD-L1 to calculate the subMFI. The experiments were performed in n=2.
The subMFI values of the control cells calculated by the FlowJo analysis and the cells cultured with the addition of the test compounds at each concentration (test cells) were input into an Excel file, and the percentages of the subMFI values of the test cells at each concentration to the average subMFI value of control cells were calculated. The regression line was determined from the percentages of the subMFI values of the test cells at each concentration by the method of least squares to calculate the 50% PD-L1 expression inhibition concentration (IC50 value) of each compound.
(Flow cytometry measures light scatter and fluorescence of single cells or particles in a stream.)
For `O=C(Nc1ccc(Oc2ccc(C(F)(F)F)cc2)cc1)C1CCCN(C(=O)c2ccc([N+](=O)[O-])cc2)C1` (stereo not shown) [Example 2, 1-(4-Nitrobenzoyl)-N-(4-(4-(trifluoromethyl)phenoxy)phenyl) piperidine-3-carboxamide], the IC50 amounted to 1200 nM.

As to `COc1cc(C(=O)N2CCCC(C(=O)Nc3ccc(Oc4ccc(C(F)(F)F)cc4)cc3)C2)ccc1O` (stereo not shown) [Example 3, 1-(4-Hydroxy-3-methoxybenzoyl)-N-(4-(4-(trifluoromethyl)phenoxy)phenyl)piperidine-3-carboxamide], the IC50 was determined as 930 nM.

Consider `O=C(Nc1ccc(Oc2ccc(S(F)(F)(F)(F)F)cc2)cc1)C1CCCN(C(=O)c2ccc([N+](=O)[O-])cc2)C1` (stereo not shown) [Example 5, 1-(4-Nitrobenzoyl)-N-(4-(4-(pentafluorosulfanyl)phenoxy)phenyl)piperidine-3-carboxamide], for which the IC50 was 670 nM.

With `COc1cc(C(=O)N2CCCC(C(=O)Nc3ccc(Oc4ccc(S(F)(F)(F)(F)F)cc4)cc3)C2)ccc1O` (stereo not shown) [Example 6, 1-(4-Hydroxy-3-methoxybenzoyl)-N-(4-(4-(pentafluorosulfanyl)phenoxy)phenyl)piperidine-3-carboxamide], the IC50 stood at 830 nM.

(Values after patent publication US11591297B2, “Compound having PD-L1 expression-suppressing action” (TOHOKU UNIVERSITY, priority 2019, dated 2023).)
